Measurements reported in US20100120858A1, “Piperidine Derivatives” (Pfizer Inc., priority 2006, published 2010).
Counter-ions that a name gives are not always drawn.

Tests used:
[1] = biological target: human norepinephrine transporter (Homo sapiens, UniProt P23975); test: Human norepinephrine (hNET) receptor binding, [125I]-RTI-55; settings: membranes of HEK-293 cells transfected with human norepinephrine transporter cDNA; 50 pM [125I]-RTI-55; IC50 converted by Cheng-Prusoff
Protocol: Cell pastes of human embryonic kidney 293 (HEK-293) cells transfected with a human norepinephrine transporter cDNA were prepared. The cell pastes were resuspended in 400 to 700 mL of Krebs-N-2-hydroxyethylpiperazine-N′-2-ethanesulfonic acid (HEPES) assay buffer (25 mM HEPES, 122 mM NaCl, 3 mM KCl, 1.2 mM MgSO4, 1.3 mM CaCl2, and 11 mM glucose, pH 7.4) with a Polytron homogenizer at setting 7 for 30 seconds. Aliquots of membranes (5 mg/mL protein) were stored in liquid nitrogen until used.
The binding assay was set up in Beckman deep-well polypropylene plates with a total volume of 250 μL containing: test compound (concentration of 10^−5M to 10^−12M), cell membranes, and 50 pM [^125I]-RTI-55 ([^125I]-3 beta-(4-iodophenyl)tropan-2 beta-carboxylic acid methyl ester) (Perkin Elmer, NEX-272; specific activity 2200 Ci/mmol). The reaction was incubated by gentle agitation for 90 minutes at room temperature and was terminated by filtration through Whatman GF/C filter plates using a Brandel 96-well plate harvester. Scintillation fluid (100 μL) was added to each well, and bound [^125I]-RTI-55 was determined using a Wallac Trilux Beta Plate Counter. Test compounds were run in duplicate, and specific binding was defined as the difference between binding in the presence and absence of 10 μM desipramine.
Excel and GraphPad Prism software were used for data calculation and analysis. IC50 values were converted to Ki values using the Cheng-Prusoff equation. The Ki values (nM) for the hNET are reported below in Table 13.

[2] = biological target: human serotonin transporter (Homo sapiens, UniProt P31645); test: Human serotonin (hSERT) receptor binding, [125I]-RTI-55; settings: membranes of HEK-293 cells transfected with human serotonin transporter cDNA, IC50 converted by Cheng-Prusoff
Chain of human serotonin transporter (P31645 whole entry): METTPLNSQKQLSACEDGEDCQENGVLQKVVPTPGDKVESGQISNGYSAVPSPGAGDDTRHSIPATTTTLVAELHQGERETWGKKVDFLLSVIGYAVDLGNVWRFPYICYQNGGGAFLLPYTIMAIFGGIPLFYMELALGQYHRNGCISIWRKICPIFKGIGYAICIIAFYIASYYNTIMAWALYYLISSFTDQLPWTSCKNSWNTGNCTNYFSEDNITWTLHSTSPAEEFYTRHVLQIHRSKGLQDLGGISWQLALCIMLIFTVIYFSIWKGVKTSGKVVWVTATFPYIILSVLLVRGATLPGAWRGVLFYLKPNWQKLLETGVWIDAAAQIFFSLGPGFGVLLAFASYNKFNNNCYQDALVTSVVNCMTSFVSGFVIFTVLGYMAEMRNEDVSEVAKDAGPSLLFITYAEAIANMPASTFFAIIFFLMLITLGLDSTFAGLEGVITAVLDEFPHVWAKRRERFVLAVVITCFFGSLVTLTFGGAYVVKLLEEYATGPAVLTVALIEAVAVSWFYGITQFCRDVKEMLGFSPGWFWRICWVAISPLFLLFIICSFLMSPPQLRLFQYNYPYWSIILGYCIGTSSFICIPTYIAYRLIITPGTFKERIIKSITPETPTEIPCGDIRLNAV
Protocol: Cell pastes of HEK-293 cells transfected with a human serotonin transporter cDNA were prepared. The cell pastes were resuspended in 400 to 700 ml of Krebs-HEPES assay buffer (25 mM HEPES, 122 mM NaCl, 3 mM KCl, 1.2 mM MgSO4, 1.3 mM CaCl2, and 11 mM glucose, pH 7.4) with a Polytron homogenizer at Setting 7 for 30 seconds. Aliquots of membranes (˜2.5 mg/mL protein) were stored in liquid nitrogen until used.
Assays were set up in FlashPlates pre-coated with 0.1% polyethyleneimine (PEI) in a total volume of 250 μL containing: test compound (concentration 10^−5M to 10^−12M), cell membranes, and […] [^125I]-RTI-55 (Perkin Elmer, NEX-272; specific activity 2200 Ci/mmol). The reaction was incubated and gently agitated for 90 minutes at room temperature, and terminated by removal of assay volume. Plates were covered, and bound [^125I]-RTI-55 was determined using a Wallac Trilux Beta Plate Counter. Test compounds were run in duplicate, and specific binding was defined as the difference between binding in the presence and absence of 10 μM citalopram.
Excel and GraphPad Prism software were used for data calculation and analysis. IC50 values were converted to Ki values using the Cheng-Prusoff equation.

Chain of human norepinephrine transporter (P23975 whole entry): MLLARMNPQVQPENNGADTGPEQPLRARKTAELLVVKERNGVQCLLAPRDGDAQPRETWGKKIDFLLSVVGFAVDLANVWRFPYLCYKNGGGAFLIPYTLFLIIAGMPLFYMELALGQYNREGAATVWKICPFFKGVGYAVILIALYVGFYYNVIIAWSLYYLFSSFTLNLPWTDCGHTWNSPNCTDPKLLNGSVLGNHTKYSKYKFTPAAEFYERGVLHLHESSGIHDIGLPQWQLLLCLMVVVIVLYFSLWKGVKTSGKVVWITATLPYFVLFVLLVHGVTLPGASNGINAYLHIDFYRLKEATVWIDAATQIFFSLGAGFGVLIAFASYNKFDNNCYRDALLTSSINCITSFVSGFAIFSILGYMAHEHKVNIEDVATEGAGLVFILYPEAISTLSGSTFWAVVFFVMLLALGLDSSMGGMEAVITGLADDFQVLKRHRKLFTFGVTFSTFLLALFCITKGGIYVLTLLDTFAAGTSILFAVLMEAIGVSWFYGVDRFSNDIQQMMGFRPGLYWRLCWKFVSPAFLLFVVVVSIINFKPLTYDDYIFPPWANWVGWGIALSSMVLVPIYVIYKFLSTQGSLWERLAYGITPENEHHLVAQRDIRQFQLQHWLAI

| Structure (SMILES) | melting point | Ki [1] [nM] | Ki [2] [nM] |
| --- | --- | --- | --- |
| CCOc1ccccc1OC(c1ccccc1)[C@H]1CCCNC1 (mixture of isomers) (as salt: fumaric acid salt) (hydrate or solvate) [Example 106, (S)-3-[(2-ethoxy-phenoxy)-(R,S)-phenyl-methyl]-piperidine fumaric acid] | 82 to 88 °C (dec.) |  |  |
| Fc1ccc(Oc2ncccc2OC(c2ccccc2)C2CCCNC2)cc1 (single isomer, unassigned; stereoisomer a) (as salt: fumaric acid salt) (hydrate or solvate) [Example 88, 2-(4-fluoro-phenoxy)-3-[((R or S)-phenyl)-((S)-piperidin-3-yl)-methoxy]-pyridine fumaric acid, stereoisomer A] | 191 to 192 °C |  |  |
| CCOc1ncccc1OC(c1ccccc1)C1CCCNC1 (single isomer, unassigned; stereoisomer a) (as salt: fumaric acid salt) [Example 90, 2-ethoxy-3-[((R or S)-phenyl)-((S)-piperidin-3-yl)-methoxy]-pyridine fumaric acid, stereoisomer A] | 159 to 161 °C |  |  |
| Fc1ccc(Oc2ncccc2OC(c2ccccc2)C2CCCNC2)cc1 (single isomer, unassigned; stereoisomer b) (as salt: fumaric acid salt) [Example 89, 2-(4-fluoro-phenoxy)-3-[((R or S)-phenyl)-((S)-piperidin-3-yl)-methoxy]-pyridine fumaric acid, stereoisomer B] | 150 to 152 °C |  |  |
| CCOc1ncccc1OC(c1ccccc1)C1CCCNC1 (single isomer, unassigned; stereoisomer b) (as salt: fumaric acid salt) [Example 91, 2-ethoxy-3-[((R or S)-phenyl)-((S)-piperidin-3-yl)-methoxy]-pyridine fumaric acid, stereoisomer B] | 58 to 68 °C (dec.) |  |  |
| Cl.c1ccc(Oc2ccccc2OC[C@H]2CCCNC2)cc1 [Example 43, (S)-3-(2-phenoxy-phenoxymethyl)-piperidine hydrochloride] | 134 to 136 °C | 0.7 | 2300 |
| Fc1ccc(OC[C@H]2CCCNC2)c(Oc2ccccc2)c1.O=C(O)/C=C/C(=O)O [Example 46, (S)-3-(4-fluoro-2-phenoxy-phenoxymethyl)-piperidine fumaric acid] | 128 to 130 °C | 2 | 320 |
| Fc1ccc(Oc2ncccc2OC[C@@H]2CCCNC2)cc1.O=C(O)/C=C/C(=O)O [Example 56, (R)-2-(4-fluoro-phenoxy)-3-(piperidin-3-ylmethoxy)-pyridine fumaric acid] | 172 to 173 °C |  |  |
| Clc1cccc(Oc2ncccc2OC[C@H]2CCCNC2)c1.O=C(O)/C=C/C(=O)O [Example 59, (S)-2-(3-chloro-phenoxy)-3-(piperidin-3-ylmethoxy)-pyridine fumaric acid] | 128 to 129 °C | 4 | 6300 |
| Fc1ccc(Oc2ncccc2OC[C@H]2CCCNC2)cc1F.O=C(O)/C=C/C(=O)O [Example 60, (S)-2-(3,4-difluoro-phenoxy)-3-(piperidin-3-ylmethoxy)-pyridine fumaric acid] | 148 to 150 °C | 2 | 6600 |
| c1ccc(Oc2ncccc2OC[C@H]2CCCNC2)cc1 [Example 93, (S)-2-phenoxy-3-(piperidin-3-ylmethoxy)-pyridine fumaric acid] |  | 5 | 7500 |
| Cc1ccc(OC[C@H]2CCCNC2)c(Oc2ccccc2)n1 [Example 95, (S)-6-methyl-2-phenoxy-3-(piperidin-3-ylmethoxy)-pyridine fumaric acid] |  | 4 | 530 |
| Fc1ccc(Oc2cccc(F)c2OC[C@H]2CCCNC2)cc1 [Example 96, (S)-3-[2-fluoro-6-(4-fluoro-phenoxy)-phenoxymethyl]-piperidine fumaric acid] |  | 1 | 530 |
| Fc1ccc(Oc2cccc(F)c2OC[C@H]2CCCNC2)cc1F [Example 97, (S)-3-[2-(3,4-difluoro-phenoxy)-6-fluoro-phenoxymethyl]-piperidine fumaric acid] |  | 1 | 690 |
| Fc1ccc(Oc2c(F)cccc2OC[C@H]2CCCNC2)cc1 [Example 98, (S)-3-[3-fluoro-2-(4-fluoro-phenoxy)-phenoxymethyl]-piperidine trifluoroacetic acid] |  | 1 | 1300 |
| CCOc1ccccc1OC[C@H]1CCCNC1 [Example 100, (S)-3-(2-ethoxy-phenoxymethyl)-piperidine fumaric acid] |  | 33 | 2600 |
| COc1cccc(F)c1OC[C@H]1CCCNC1 [Example 103, (S)-3-(2-fluoro-6-methoxy-phenoxymethyl)-piperidine fumaric acid] |  | 45 | 1200 |
| CCOc1cccc(F)c1OC[C@H]1CCCNC1 [Example 105, (S)-3-(2-ethoxy-6-fluoro-phenoxymethyl)-piperidine fumaric acid] |  | 32 | 2800 |
| CCOc1ccccc1O[C@@H](C)[C@H]1CCCNC1 [Example 107, (S)-3-[(S)-1-(2-ethoxy-phenoxy)-ethyl]-piperidine] |  | 7 | 2700 |
| C[C@H](Oc1ccccc1OCc1ccccc1)[C@H]1CCCNC1 [Example 108, (S)-3-[(S)-1-(2-benzyloxy-phenoxy)-ethyl]-piperidine oxalic acid] |  | 3 | 730 |
| CC(C)COc1ccccc1O[C@@H](C)[C@H]1CCCNC1 [Example 109, (S)-3-[(S)-1-(2-isobutoxy-phenoxy)-ethyl]-piperidine] |  | 3 | 1200 |
| C[C@H](Oc1ccccc1OCC1CCC1)[C@H]1CCCNC1 [Example 110, (S)-3-[(S)-1-(2-cyclobutylmethoxy-phenoxy)-ethyl]-piperidine oxalic acid] |  | 3 | 420 |
| C[C@H](Oc1ccccc1OC1CCCCC1)[C@H]1CCCNC1 [Example 111, (S)-3-[(S)-1-(2-cyclohexyloxy-phenoxy)-ethyl]-piperidine oxalic acid] |  | 5 | 1800 |
| CC(C)CCOc1ccccc1O[C@@H](C)[C@H]1CCCNC1 [Example 112, (S)-3-{(S)-1-[2-(3-methyl-butoxy)-phenoxy]-ethyl}-piperidine oxalic acid] |  | 16 | 790 |
| COCCOc1ccccc1O[C@@H](C)[C@H]1CCCNC1 [Example 113, (S)-3-{(S)-1-[2-(2-methoxy-ethoxy)-phenoxy]-ethyl}-piperidine hydrochloride] |  | 17 | 3600 |
| CCOc1ccccc1O[C@@H](c1ccccn1)[C@H]1CCCNC1 [Example 114, 2-[{(R)-2-ethoxy-phenoxy}-(S)-piperidin-3-yl-methyl]-pyridine fumaric acid] |  | 7 | 3700 |
| COc1cccc(F)c1O[C@@H](c1ccccn1)[C@H]1CCCNC1 [Example 115, 2-[{(R)-2-fluoro-6-methoxy-phenoxy}-(S)-piperidin-3-yl-methyl]-pyridine fumaric acid] |  | 4 | 5020 |
| FC(F)(F)Oc1ccccc1O[C@@H](c1ccccn1)[C@H]1CCCNC1 [Example 116, 2-[(S)-piperidin-3-yl-{(R)-2-trifluoromethoxy-phenoxy}-methyl]-pyridine fumaric acid] |  | 3 | 3700 |
| COc1ccc(F)cc1O[C@@H](c1ccccn1)[C@H]1CCCNC1 [Example 117, 2-[{(R)-5-fluoro-2-methoxy-phenoxy}-(S)-piperidin-3-yl-methyl]-pyridine fumaric acid] |  | 16 | 4600 |
| COCCOc1ccccc1OC(C)(C)[C@H]1CCCNC1 [Example 118, (S)-3-{1-[2-(2-methoxy-ethoxy)-phenoxy]-1-methyl-ethyl}-piperidine fumaric acid] |  | 38 | 2500 |
